Source: paper PMC6437697 (Journal of Medicinal Chemistry, 2019)

What was measured:
[1] = target: recombinant G547 IRE1α KEN domain (Homo sapiens, UniProt O75460); experiment: IRE1α S724 autophosphorylation assay (DELFIA); format: biochemical; settings: read-out: IRE1a autophosphorylation inhibition (DELFIA IC50 nM)
[2] = target: recombinant dephosphorylated G547 IRE1α KEN domain (Homo sapiens, UniProt O75460); experiment: IRE1α ATP-site binding assay (LanthaScreen tracer displacement); settings: read-out: IRE1a ATP site binding (LanthaScreen IC50 nM)
[3] = test system: IRE1α-dependent splicing of XBP1u-luciferase mRNA reporter in HEK293 cells; experiment: XBP1 luciferase fusion mRNA splicing reporter in HEK293 cells; format: cell-based, human; settings: HEK293TN; read-out: XBP1 reporter cleavage in HEK293TN IC50
[4] = test system: HEK293 cells stably expressing an XBP1u-luciferase mRNA reporter; settings: read-out: HEK293 cytotoxicity (CellTitreBlue) IC50

Chain of recombinant dephosphorylated G547 IRE1α KEN domain (O75460 547-977): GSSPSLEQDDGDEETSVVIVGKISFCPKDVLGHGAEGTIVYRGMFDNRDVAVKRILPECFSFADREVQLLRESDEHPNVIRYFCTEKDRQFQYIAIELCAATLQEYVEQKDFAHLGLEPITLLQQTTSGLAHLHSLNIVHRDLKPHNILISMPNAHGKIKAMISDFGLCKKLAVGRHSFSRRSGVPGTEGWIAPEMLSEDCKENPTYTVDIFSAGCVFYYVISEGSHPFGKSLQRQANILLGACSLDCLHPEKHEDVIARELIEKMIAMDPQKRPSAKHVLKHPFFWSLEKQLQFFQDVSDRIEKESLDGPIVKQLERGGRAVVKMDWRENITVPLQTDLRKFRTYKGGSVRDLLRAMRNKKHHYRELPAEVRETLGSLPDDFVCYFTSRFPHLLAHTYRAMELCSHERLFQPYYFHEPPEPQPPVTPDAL
Chain of recombinant G547 IRE1α KEN domain (O75460 547-977): as above

Fc1cc(F)cc(Cn2cc(-c3ccnc4[nH]cnc34)cn2)c1 [Control A, 7-(1-(3,5-difluorobenzyl)-1H-pyrazol-4-yl)-3H-imidazo[4,5-b]pyridine, reference compound]
IC50 [1]: 3110 nM
IC50 [2]: 3280 nM
IC50 [3]: 6.2 µM
IC50 [4]: > 50 µM

CC(C)Nc1cc(Cl)nn2c(-c3ccc4[nH]ncc4c3)cnc12 [compound 33]
IC50 [1]: 276 nM
IC50 [2]: 736 nM
